Patent US20050272750A1, “Novel compound” (AstraZeneca AB, priority 2002, published 2005)

Tests used:
[1] = biological target: T1, CXCR2 receptor in human neutrophils (Homo sapiens, UniProt P25025); test: Intracellular calcium mobilisation assay (GROα-stimulated, fluo-3, FLIPR); assay type: cell-based; details: A50 concentration of GROα, fluo-3 fluorescence
T1 construct: Human neutrophils were prepared from EDTA-treated peripheral blood; endogenous in cells; host or cells: human neutrophils from peripheral blood
T1 sequence (P25025 1-360): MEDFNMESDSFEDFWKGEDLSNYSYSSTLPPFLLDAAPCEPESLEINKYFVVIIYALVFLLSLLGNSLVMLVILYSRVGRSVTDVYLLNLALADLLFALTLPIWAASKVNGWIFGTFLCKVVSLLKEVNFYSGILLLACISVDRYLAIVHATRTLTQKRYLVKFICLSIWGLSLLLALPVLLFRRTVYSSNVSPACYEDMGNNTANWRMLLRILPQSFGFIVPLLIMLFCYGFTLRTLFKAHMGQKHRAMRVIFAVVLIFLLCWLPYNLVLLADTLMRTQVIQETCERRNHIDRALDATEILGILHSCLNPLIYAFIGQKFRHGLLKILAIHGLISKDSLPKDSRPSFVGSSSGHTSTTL
Protocol: Intracellular Calcium Mobilisation Assay
Human neutrophils were prepared from EDTA-treated peripheral blood, as previously described (Baly et al. (1997) Methods in Enzymology 287 pp70-72), in storage buffer [Tyrode's salt solution (137 mM NaCl 2.7 mM KCl, 0.4 mM NaH2PO4) supplemented with 5.7 mM glucose and 10 mM HEPES (pH 7.4)].
The chemokine GROα (human, recombinant) was purchased from R&D Systems (Abingdon, U.K.). All other chemicals were of analytical grade. Changes in intracellular free calcium were measured fluorometrically by loading neutrophils with the calcium sensitive fluorescent dye, fluo-3, as described previously (Merritt et al. (1990) Biochem. J. 269, pp513-519). Cells were loaded for 1 hour at 37° C. in loading buffer (storage buffer with 0.1% (w/v) gelatin) containing 5 μM fluo-3 AM ester, washed with loading buffer and then resuspended in Tyrode's salt solution supplemented with 5.7 mM glucose, 0.1% (w/v) bovine serum albumin (BSA), 1.8 mM CaCl2 and 1 mM MgCl2. […]
A compound of formula (1) according to the Examples was pre-dissolved in DMSO and added to a final concentration of 0.1% (v/v) DMSO. Assays were initiated by the addition of an A50 concentration of GROα and the transient increase in fluo-3 fluorescence (λEx=490 nm and λEm=520 nm) monitored using a FLIPR (Fluorometric Imaging Plate Reader, Molecular Devices, Sunnyvale, U.S.A).

hrCXCR2 = biological target: T2, hrCXCR2 (Homo sapiens, UniProt P25025); test: Ligand binding assay ([125I]IL-8 displacement, HEK 293 membranes); details: [125I]IL-8 binding to membranes of HEK 293 cells expressing hrCXCR2; 1.5 hours at room temperature
T2 construct: expressed in transfected cells; host or cells: HEK 293 cells (ECACC No. 85120602), membranes of the highest expressing clone
T2 sequence (P25025 1-360): T1 sequence (P25025 1-360)
Source text: [^125I]IL-8 (human, recombinant) was purchased from Amersham, U.K. with a specific activity of 2,000 Ci/mmol. All other chemicals were of analytical grade. High levels of hrCXCR2 were expressed in HEK 293 cells (human embryo kidney 293 cells ECACC No. 85120602) (Lee et al. (1992) J. Biol. Chem. 267 pp 16283-16291). hrCXCR2 cDNA was amplified and cloned from human neutrophil mRNA. The DNA was cloned into PCRScript (Stratagene) and clones were identified using DNA. The coding sequence was sub-cloned into the eukaryotic expression vector RcCMV (Invitrogen). Plasmid DNA was prepared using Quiagen Megaprep 2500 and transfected into HEK 293 cells using Lipofectamine reagent (Ginbco BRL). Cells of the highest expressing clone were harvested in phosphate-buffered saline containing 0.2% (w/v) ethylenediaminetetraacetic acid (EDTA) and centrifuged (200 g, 5 min.). The cell pellet was resuspended in ice cold homogenisation buffer [[…] HEPES (pH 7.4), 1 mM dithiothreitol 1 mM EDTA and a panel of protease inhibitors (1 mM phenyl methyl sulphonyl fluoride, 2 μg/ml soybean trypsin inhibitor, 3 mM benzamidine, 0.5 μg/ml leupeptin and 100 μg/ml bacitracin)] and the cells left to swell for 10 minutes. […] The backing plate was removed from the MultiScreen plate assembly, the filters dried at room temperature, punched out and then counted on a Cobra γ-counter.

For C[C@H](O)[C@H](CO)Nc1nc(SCc2cccc(F)c2F)nc2[nH]c(=O)sc12 [compound of formula (I), 5-[((2,3-difluorophenyl)methyl)thio]-7-{[(1S,2S)-2-hydroxy-1-(hydroxymethyl)propyl]amino}thiazolo[4,5-d]pyrimidin-2(3B)-one], the melting point was 202 to 204 °C, the “antagonism of the CXCR2 receptor (GROα-induced intracellular calcium increase)” value [1] was “antagonist” and the IC50 (hrCXCR2) was under 10 µM.
